Results taken from patent US20250057836A1, “Compositions And Methods Targeting G12 Signaling For Bronchodilator Therapy” (Rutgers, The State University of New Jersey, priority 2017, published 2025).
“Also recorded” adds a separate entry of the source. Counter-ions that a name gives are not always drawn.

Assays:
[1] = tested on: AKT phosphorylation at S473 (pAKT); assay: Immunoblot of AKT phosphorylation in HASMCs; format: cell-based, human
Description: Isolation and culture of HASMC. Human lungs were received from the National Disease Research Interchange (Philadelphia, PA, USA) and from the International Institute for the Advancement of Medicine (Edison, NJ, USA) and HASM cells were derived from the tracheas. […] Culture of HASM cells was conducted as described previously (Panettieri et al., 1989a). Briefly, cells were cultured in Ham's F-12 medium supplemented with 100 U mL^−1 penicillin, 0.1 mg mL^−1, streptomycin, 2.5 mg mL^−1 amphotericin B and 10% FBS. Medium was replaced every 72 hours. HASM cells were only used during subculture passages 1-4 due to the strong expression of native contractile proteins (Panettieri et al., 1989b). In pertussis toxin studies, cells were treated with 1 μg/ml of pertussis toxin for 18 hours. […]
Immunoblot analysis. […] Phosphorylation of MYPT1, MLC and AKT were assessed, and band densities were normalized to GAPDH, total MYPT1, total MLC, or total AKT band density.
Statistical analysis. […] For experiments comparing agonist responses in primary cells, conditions were all normalized to the basal condition and subsequently analyzed statistically. GraphPad Prism software (La Jolla, CA, USA) was used to determine statistical significance evaluated by Student's unpaired t-test for two groups or ANOVA with Bonferroni post-test for 3 or more groups. […]

[2] = tested on: isoproterenol-mediated cAMP production; assay: cAMP assay in HASMCs; format: cell-based, human; conditions: pertussis toxin 18 h, 1 μg/ml; 306±23 fold without PTX
Description: Isolation and culture of HASMC. Human lungs were received from the National Disease Research Interchange (Philadelphia, PA, USA) and from the International Institute for the Advancement of Medicine (Edison, NJ, USA) and HASM cells were derived from the tracheas. […] Culture of HASM cells was conducted as described previously (Panettieri et al., 1989a). Briefly, cells were cultured in Ham's F-12 medium supplemented with 100 U mL^−1 penicillin, 0.1 mg mL^−1, streptomycin, […] amphotericin B and 10% FBS. Medium was replaced every 72 hours. HASM cells were only used during subculture passages 1-4 due to the strong expression of native contractile proteins (Panettieri et al., 1989b). In pertussis toxin studies, cells were treated with 1 μg/ml of pertussis toxin for 18 hours. All pharmacologic inhibitors were used with DMSO as the vehicle at a final concentration of 0.1% and were used to treat HASMC 30 minutes prior to agonist stimulation.
cAMP Assay. HASMCs were seeded in a 24-well plate until about 80% confluent and serum-deprived overnight. Cells were stimulated and lysed using cAMP-Screen System ELISA from Applied Biosystems (Bedford, MA, USA). Experiment was conducted according to manufacturer's protocol.

[3] = tested on: human precision-cut lung slices (hPCLS); assay: hPCLS airway dilation assay; format: cell-based

Compound: pertussis toxin
- effect on carbachol-induced AKT phosphorylation compared to vehicle ([1]; pertussis toxin 18 h, 1 μg/ml before carbachol 10 μM 10 min, vehicle 0.01% DMSO): little effect
- isoproterenol-mediated cAMP elevation in the presence of carbachol (fold over basal) [2]: 461±37 fold

Compound: rhosin
- bronchodilation of carbachol-preconstricted hPCLS ([3]; increasing doses of rhosin after carbachol, compared with formoterol): comparable to formoterol; also recorded: reverses carbachol-induced bronchoconstriction in a dose-dependent manner
- carbachol-induced phosphorylation of AKT (fold over basal) ([1]; primary HASMCs, rhosin 10 μM 30 minutes, carbachol 10 μM 10 min, vehicle 4.4±0.8 fold): 0.6±0.1 fold

Compound: COc1ccc(CC(C)NCC(O)c2ccc(O)c(NC=O)c2)cc1 (centres unmarked) [Formoterol, formoterol fumarate dihydrate]
- EC50 ([3]; Homo sapiens, read-out: log EC50, reversal of carbachol-induced bronchoconstriction (converted)): 501 nM
